The subject of experiment [1] is Aspergillus flavus. The experiment is described as follows: Microbial Growth Inhibition Test, broth microdilution optical method. It counts as cell-based. To be noted: 12 μM. The procedure: The IC90 of psoriasin for several microorganisms was determined by Microbial Growth Inhibition Tests. The tests were performed using the Broth Microdilution Optical Method based on standardized protocols M27 (yeasts) and M38 (filamentous fungi) of the Clinical and Laboratory Standards Institute. […] MOPS, LB (Luria-Bertani), and TSB ([…]) medium types were used, depending on the species being tested. The absorbance was calibrated to each species, and was measured between 450 nm to 650 nm.
In addition, ethyl lauroyl arginate (LAE), a commercially available food preservative, was tested in similar growth conditions as a reference.

In experiment [2] the test system is initial microbial load of plant-based meat substitute. Put plainly: Microbial load of plant-based meat substitute during storage. The class given is cell-based. The protocol: The ability of psoriasin to extend the shelf life of a plant-based meat substitute was examined under standard storage conditions. Three groups, each stored as an open package at […], were assessed over the course of 16 days. The groups included i) an untreated control, ii) a nisin-treated sample, and iii) a psoriasin-treated sample at 0.65%. A single source of the plant-based meat substitute was used and each group was reproduced in triplicate. The microbial load of the plant-based meat substitute samples was based on the initial microbial load without the addition of antibiotics and without the addition of mold, yeast or bacteria. Samples from each group were taken on days 1, 3, 5, 10, 11 and 16 and total CFU count was determined by plating on LB and PDA agar petri dishes.

Experiment [3] deals with C. albicans. Put plainly: C. albicans growth in RPMI-MOPS with S100a12. To be noted: 30° C, approximately 19 hours. The class given is cell-based, Candida albicans. The procedure:
C. albicans cells in RPMI-MOPS were incubated in a 96-well plate at 30° C. with S100a12 at concentrations of 0.32, 2.5, 5 and 20 μM (FIG. 11). Optical density was measured every 10 minutes by absorbance at 600 nm over the course of approximately 19 hours.

Experiment [4] concerns E. coli BL21 cells. Put plainly: E. coli growth in LB with S100a8 / S100a9. The class given is cell-based. To be noted: 37° C; for inhibition of E. coli growth: 0.18 μM to 50 μM. The protocol:
E. coli cells in LB media were incubated in a 96-well plate at 37° C. with S100a8 (FIG. 10A) or S100a9 (FIG. 10B) at concentrations varying from 0.18 μM to 50 μM. Optical density was measured every 10 minutes by absorbance at 600 nm over the course of approximately 19 hours. […] In addition, the same experiment was performed using varying equimolar concentrations of S100a8 and S100a9 that were pre-incubated for two hours at 4° C. under constant shaking.

With `CCCCCCCCCCCC(=O)N[C@@H](CCCN=C(N)N)C(=O)OCC` [LAE, ethyl lauroyl arginate, reference compound], the “inhibition of A. flavus growth” value in experiment [1] is given as “approximately 40%”.
For the molecule nisin [reference compound], the “Yeast & Mold Count” value in experiment [2] (Day 1) is reported as 2 × 10^2; in experiment [2] (Day 3), 2 × 10^2; in experiment [2] (Day 5), 1.4 × 10^3; in experiment [2] (Day 10), 1.47 × 10^4; in experiment [2] (Day 11) it was 1.46 × 10^4; in experiment [2] (Day 16), 3.2 × 10^4. Further, the “Total CFU count” value was 1.2 × 10^4 CFU in experiment [2] (Day 1, open package, psoriasin 0.65%); 1.2 × 10^4 CFU in experiment [2] (Day 3); 5 × 10^4 CFU in experiment [2] (Day 5); 1.8 × 10^8 CFU in experiment [2] (Day 10); 2.35 × 10^8 CFU in experiment [2] (Day 11); 1.28 × 10^10 CFU in experiment [2] (Day 16).

B1: S100a12: S100 protein; human S100a12 sequence SEQ ID NO: 6 (protein, listed as Homo sapiens)
chain: MTKLEEHLEGIVNIFHQYSVRKGHFDTLSKGELKQLLTKELANTIKNIKDKAVIDEIFQGLDANQDEQVDFQEFISLVAIALKAAHYHTHKE
Turning to B1, the “concentration with significant inhibition of C. albicans growth” value in experiment [3] was at least 0.32 µM.

B2: S100a9: Recombinant S100 protein; human S100a9 sequence SEQ ID NO: 4 (protein, listed as Homo sapiens)
chain: MTCKMSQLERNIETIINTFHQYSVKLGHPDTLNQGEFKELVRKDLQNFLKKENKNEKVIEHIMEDLDTNADKQLSFEEFIMLMARLTWASHEKMHEGDEGPGHHHKPGLGEGTP
For B2, in experiment [4], the “inhibition of E. coli growth” value is reported as “Inhibit Growth of E. coli BL21 Cells”.

B3: S100a8: Recombinant S100 protein; human S100a8 sequence SEQ ID NO: 3 (protein, listed as Homo sapiens)
chain: MLTELEKALNSIIDVYHKYSLIKGNFHAVYRDDLKKLLETECPQYIRKKGADVWFKELDINTDGAVNFQEFLILVIKMGVAAHKKSHEESHKE
B3: the “inhibition of E. coli growth” value in experiment [4] is “Inhibit Growth of E. coli BL21 Cells”. In addition, the “concentration giving full inhibition of E. coli growth” value in experiment [4] (approximately 19 hours, OD 600 nm) was at most 1.5 µM.

Values taken from patent publication US20260231968A1, “AN ECO-FRIENDLY, SUSTAINABLE FOOD PRESERVATIVE” (priority 2023, published 2026).
